Test results: patent publication US20240216339A1, “METHODS OF TREATING NEUROPSYCHIATRIC DISORDERS” (GILGAMESH PHARMACEUTICALS, INC., priority 2021, published 2024)

Key:
[1] = system: C57BL/6 mice; assay: Head twitch response (HTR) to 4-HO-MET after vehicle or daridorexant pre-treatment; assay type: in vivo, mouse; conditions: 4-HO-MET 0.32-3.2 mg/kg s.c.; vehicle (0.5% methylcellulose) pretreatment; 20 min period; FIG. 5
Procedure: Administration of 5-HT2A receptor agonists in mice induces a robust head twitch response (HTR). The number of head twitches observed in mice is recognized as an indicator of the degree of psychedelic effects (Halberstadt et al 2020). To determine whether the HTR induced by 5-HT2A receptor agonists is modulated by dual orexin receptor antagonists, a study was performed comparing the HTR induced by a 5-HT2A receptor agonist, 4-hydroxy-N-methyl-N-ethyltryptamine (4-HO-MET), after pre-treatment with either vehicle or the dual orexin receptor antagonist daridorexant.
Male C57BL/6 mice (˜6-8 Week; Hylasco, Hyderabad, India) were pair-housed under standard conditions on a 12-h light cycle with free access to food and water. On the test day, mice were randomly assigned to one of 6 treatment groups (see Table 1 below). Mice were dosed orally with 0.5% methylcellulose or daridorexant at t=−30 min followed by a subcutaneous (s.c.) injection of 4-HO-MET (0.32, 1, or 3.2 mg/kg) at t=0 min. Mice were then immediately placed in a chamber and the number of head twitches in a 20 min period post 4-HO-MET injection (t=0-20 min) were counted manually by a blinded, trained observer.

[2] = system: individuals; conditions: anecdotal; individuals who fell asleep while taking LSD; more than 12 hours after the dose; cited from earlier work
[3] = system: sleep-wake behaviour in Sprague Dawley rats; assay: EEG/EMG sleep-wake study of daridorexant, psilocybin and their combination; assay type: in vivo, rat
Procedure: The aim of this study was to investigate the effects of daridorexant, psilocybin, and the combination of the two compounds, on sleep-wake behaviour in Sprague Dawley rats, across the circadian cycle. Daridorexant is a dual orexin receptor antagonist used for treating insomnia. Psilocybin is a 5-HT2A receptor agonist with psychedelic properties and relatively short half-life. The study was conducted at Transpharmation, UK, under Study IDs EEG079a and EEG079c.
8 male Sprague Dawley rats (Charles River, UK) were used in the study. Animals were housed in groups of 2-3 with standard conditions. Average weight at start of dosing was 433-517 g, corresponding to ˜ 14 weeks old.
The animals were anaesthetised with isoflurane (2-5% in oxygen at 1 L/min) throughout the procedure. The scalp, neck, and right flank were cleared of hair using clippers and cleaned using diluted Hibitane (50% (v/v) in water). A non-steroidal anti-inflammatory agent was administered (Carprofen 5 mg/kg, subcutaneously (s.c.)) and the animals placed on a homeothermic blanket (37° C.) with the head fixed in a stereotaxic frame. Incisions were made in the scalp and neck, as well as in the right flank. Blunt dissection of the abdominal muscle was then made to gain access to the peritoneal cavity. A radio transmitter (HD-S02, Data Sciences International) was implanted in the peritoneal cavity and secured to the muscle wall with non-absorbable sutures. The wires of the transmitter were passed using a 16 G needle through the muscle wall and then sub-dermally to the scalp to act as EEG/EMG electrodes. The scalp was cleared of connective tissue and two craniotomies were made with a trepanning drill (fronto-parietal coordinates; Bregma+2 mm anterior, midline+1.0 mm lateral, and Lambda 0 mm, +1.5 mm lateral). The positive EEG electrode was attached to the anterior craniotomy and the negative EEG electrode to the posterior craniotomy. Both electrodes were secured in place using a suitable adhesive agent (cyanoacrylate gel, RS components). A second set of electrodes were sutured into the nuchal muscle to act as EMG electrodes. All incisions were closed using absorbable suture.
All animals were allowed to recover in a warm environment and given 5 mL of saline s.c. Animals were kept singly in the cage until the next day, then pair housed for the duration of post-surgical recovery (minimum 7 days). During the recovery period the rats received 5 days of standard post-operative care with no further experimental procedures until the pre-operative body weight was regained. The animals were maintained on a 12/12 h light-dark cycle (08:00 am lights on) after the surgery.
On study days, at ˜30 min after lights-on, animals were placed in recording boxes similar to their home cages and data acquisition was begun for confirmation of signal quality. After 30 min, each animal was briefly removed from its box to be dosed (see schedule below). Animals were immediately put back into the recording boxes, the experimenter left the room, and recordings continued uninterrupted for ˜23 h. At the end of the recording session, the transmitters were turned off and the animals were returned to their home cages. Animals received treatment conditions in a pseudo randomised cross-over fashion with a minimum period of 7 days between doses.
Daridorexant was administered p.o. at a volume of 5 mL/kg with 0.5% methylcellulose vehicle (Vehicle 1), at doses of 30 mg/kg or 100 mg/kg. Psilocybin was administered s.c. at a volume of 3 mL/kg with saline vehicle (Vehicle 2), at doses of 0.5 mg/kg, 1 mg/kg, or 3 mg/kg.
EEG, EMG, and locomotor activity data were acquired for ˜23 h post dosing using intraperitoneal HD-S02 transmitters (DSI, New Brighton, MN) and Spike2 software (CED, Cambridge UK). EEG/EMG signals were amplified, analogue filtered (0.5-100 Hz), digitized (256 Hz), and then digitally filtered (EEG: 0.5-100 Hz and EMG: 70-100 Hz). […]

[4] = system: patients with major depressive disorder (MDD); conditions: discontinued Phase II study; cited from earlier work
[5] = system: major depressive disorder (MDD); conditions: cited from earlier work
[6] = first 4 h after dosing, daridorexant at both 30 and 100 mg/kg p.o., FIG. 1B

CCN(C)CCc1c[nH]c2cccc(O)c12 [4-HO-MET, 4-hydroxy-N-methyl-N-ethyltryptamine]
number of head twitches (HTR) [1]: produced HTR in a dose-dependent manner

CCN(CC)C(=O)[C@@H]1C=C2c3cccc4[nH]cc(c34)C[C@H]2N(C)C1 [LSD, lysergic acid diethylamide]
next day creativity and vigor [2]: next day enhanced creativity and vigor

COc1ccc(-n2nccn2)c(C(=O)N2CCC[C@@]2(C)c2nc3c(C)c(Cl)ccc3[nH]2)c1 [daridorexant]
percentage of time spent in Wake across 22 h ([3]; first 2 h after dosing, daridorexant alone 30, 100 mg/kg, FIG. 3A): wakefulness reduction
percentage of time spent in NREM across 22 h ([3]; first 2 h after dosing, daridorexant alone 30, 100 mg/kg, FIG. 3B): promotion of NREM and REM sleep
percentage of time spent in REM across 22 h ([3]; first 2 h after dosing, daridorexant alone 30, 100 mg/kg, FIG. 3C): promotion of NREM and REM sleep
percentage of time spent in Wake [3, 6]: acutely reduced wakefulness for the first 2 h after dosing
percentage of time spent in sleep (NREM, REM) [3, 6]: promoting sleep, especially NREM sleep
REM sleep onset latency ([3]; psilocybin 1, 3 mg/kg, daridorexant 30, 100 mg/kg, combinations D100+P1, D30+P1, FIG. 2A): dose-dependent decrease
NREM sleep onset latency ([3]; psilocybin 1, 3 mg/kg, daridorexant 30, 100 mg/kg, combinations D100+P1, D30+P1, FIG. 2B): reduction

Cc1ccc(-c2ncccn2)c(C(=O)N2C[C@H](COc3ccc(F)cn3)CC[C@H]2C)c1 [filorexant]
separation from placebo in MDD [4]: did not separate from placebo

Cc1cc(C)nc(N2CC3CN(C(=O)c4c(F)cccc4-n4nccn4)CC3C2)n1 (stereo not drawn) [seltorexant, Seltorexant]
(left posterior) EEG power ([5]; compared to placebo): overall increase
delta power during stage 2 sleep ([5]; compared to placebo): relative increase
theta, alpha, and beta power during stage 2 sleep ([5]; compared to placebo): decrease
antidepressant efficacy with continued treatment ([5]; continued treatment up to 28 days): maintained
core depressive symptoms compared to placebo ([5]; ten days of treatment, seen at day 11): significant improvement
